The source of these data is ChEMBL document CHEMBL4387748, “Chalcone derivatives bearing chromen or benzo[f]chromen moieties: Design, synthesis, and evaluations of anti-inflammatory, analgesic, selective COX-2 inhibitory activities” (Bioorg Med Chem Lett, 2019).

For experiment [1], the system named is Mus musculus. Kind of experiment: Anti-inflammatory activity in mouse assessed as inhibition of xylene-induced ear edema at 30 mg/kg, ip dosed prior to xylene challenge and measured 1 hr post xylene injection relative to control. Type of experiment: functional.
Experiment [2] has as its system Mus musculus. Nature of the experiment: Analgesic activity in mouse at 30 mg/kg, ip measured after 60 mins by hot plate technique relative to control. As to conditions: 1 h. The experiment is classed as functional.
The nature of experiment [3]: Selectivity index, ratio of IC50 for COX1 (unknown origin) to IC50 for COX2 (unknown origin). As to conditions: Homo sapiens.
In experiment [4] the target is Prostaglandin G/H synthase 1 (Ovis aries) (UniProt P05979).
Experiment [5] deals with Prostaglandin G/H synthase 2 (Ovis aries) (UniProt P79208).
Chain of Prostaglandin G/H synthase 2 (Ovis aries) (P79208 whole entry, looked up): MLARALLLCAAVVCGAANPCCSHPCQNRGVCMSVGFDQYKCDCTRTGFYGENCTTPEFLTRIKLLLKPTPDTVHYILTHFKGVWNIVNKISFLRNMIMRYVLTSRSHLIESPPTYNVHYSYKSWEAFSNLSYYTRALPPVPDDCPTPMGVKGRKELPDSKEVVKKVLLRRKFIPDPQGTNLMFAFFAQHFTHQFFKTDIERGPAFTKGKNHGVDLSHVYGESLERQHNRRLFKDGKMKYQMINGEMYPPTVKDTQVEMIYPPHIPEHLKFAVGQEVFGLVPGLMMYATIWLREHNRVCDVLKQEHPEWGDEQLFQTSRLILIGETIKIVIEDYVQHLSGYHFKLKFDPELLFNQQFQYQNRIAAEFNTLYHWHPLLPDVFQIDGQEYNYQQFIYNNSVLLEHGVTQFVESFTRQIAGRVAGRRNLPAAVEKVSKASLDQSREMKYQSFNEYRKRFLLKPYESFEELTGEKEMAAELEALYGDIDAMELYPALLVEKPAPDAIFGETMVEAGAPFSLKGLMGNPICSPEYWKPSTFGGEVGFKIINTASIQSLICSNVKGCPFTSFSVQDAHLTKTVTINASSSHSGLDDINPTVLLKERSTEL

One may read the inhibition in vivo as how much of the control response was suppressed. For the compound `O=C(/C=C/C1=Cc2ccccc2OC1)c1ccccc1F`, the figures for the inhibition in vivo at 30 mg/kg in the experiment with Mus musculus [1] and in the experiment with Mus musculus [2] were 64.4% and 66.7 to 100%, respectively.
For `O=C(/C=C/C1=Cc2c(ccc3ccccc23)OC1)c1cccc(F)c1` the same measures were 70.1% and 96.2 to 100%.
As a reminder, the IC50 is the point on the concentration scale where inhibition reaches its midpoint. Higher therefore signals a need for much substance. In the case of `O=C(/C=C/C1=Cc2c(ccc3ccccc23)OC1)c1ccc(Cl)cc1Cl`, the inhibition in vivo at 30 mg/kg came out at 84.1% with Mus musculus [1] and 100% in the experiment on Mus musculus [2]. Further, in experiment [3], the Ratio IC50 was 27.3. Also, the IC50 in experiment [4] amounted to 7.92 µM; in experiment [5], 0.29 µM.
With `Cc1ccc(C(=O)/C=C/C2=Cc3ccccc3OC2)cc1`, the inhibition in vivo at 30 mg/kg in the experiment with Mus musculus [1] is 53.1%; in the experiment with Mus musculus [2], 66.7 to 100%.
Consider `O=C(/C=C/C1=Cc2c(ccc3ccccc23)OC1)c1ccc(C(F)(F)F)cc1`, for which the inhibition in vivo at 30 mg/kg turned out to be 83.6% in the experiment with Mus musculus [1] and 100% in the experiment on Mus musculus [2]. Also, the Ratio IC50 in experiment [3] came to 26.1. In addition, the half-maximal inhibitory concentration (IC50) in experiment [4] was 8.63 µM; in experiment [5], 0.33 µM.
In the case of `O=C(/C=C/C1=Cc2c(ccc3ccccc23)OC1)c1ccc(Cl)cc1`, the figures for the inhibition in vivo at 30 mg/kg in the experiment with Mus musculus [1] and in the experiment with Mus musculus [2] were 67.1% and 96.2 to 100%, respectively.
On to `Cc1ccc(C(=O)/C=C/C2=Cc3ccccc3OC2)cc1C`, for which the inhibition in vivo at 30 mg/kg is 48.1% in the experiment with Mus musculus [1] and 66.7 to 100% with Mus musculus [2].
For `COc1ccc(C(=O)/C=C/C2=Cc3c(ccc4ccccc34)OC2)cc1OC` the same measures were 55.1% and 96.2 to 100%.
For `CN(C)c1ccc(C(=O)/C=C/C2=Cc3c(ccc4ccccc34)OC2)cc1` the same measures were 67.2% and 96.2 to 100%.
With `O=C(/C=C/C1=Cc2ccccc2OC1)c1ccc(Br)cc1`, the inhibition in vivo at 30 mg/kg in the experiment with Mus musculus [1] is 66%; in the experiment with Mus musculus [2] it was 66.7 to 100%. For the same compound, the Ratio IC50 in experiment [3] is 17.2. Moreover, the IC50 in experiment [4] turned out to be 7.21 µM; in experiment [5] it was 0.42 µM.
For `O=C(/C=C/C1=Cc2ccccc2OC1)c1ccc(F)cc1` the same measures were 65.6%, 66.7 to 100%, 22.5, 8.32 µM and 0.37 µM.
In the case of `O=C(/C=C/C1=Cc2c(ccc3ccccc23)OC1)c1ccc(F)cc1`, the inhibition in vivo at 30 mg/kg in the experiment with Mus musculus [1] was 57.3%; in the experiment on Mus musculus [2], 96.2 to 100%.
For `O=C(/C=C/C1=Cc2ccccc2OC1)c1ccc(Cl)cc1Cl` the same measures were 53.3% and 66.7 to 100%.
Turning to `COc1ccc2c(c1)c(CC(=O)O)c(C)n2C(=O)c1ccc(Cl)cc1` [INDOMETHACIN], the inhibition in vivo at 30 mg/kg with Mus musculus [1] lay within 64.3 to 82.2%.
Take `Nc1ccc(C(=O)/C=C/C2=Cc3c(ccc4ccccc34)OC2)cc1`: the inhibition in vivo at 30 mg/kg in the experiment on Mus musculus [1] is 67.1%; in the experiment with Mus musculus [2] it was 96.2 to 100%.
For `O=C(/C=C/C1=Cc2c(ccc3ccccc23)OC1)c1ccccc1Cl` the same measures were 66.1% and 96.2 to 100%.
For `O=C(/C=C/C1=Cc2c(ccc3ccccc23)OC1)c1cccc(Cl)c1` the same measures were 75% and 96.2 to 100%.
For `O=C(/C=C/C1=Cc2ccccc2OC1)c1ccccc1Cl` the same measures were 52.3% and 66.7 to 100%.
As to `O=C(/C=C/C1=Cc2c(ccc3ccccc23)OC1)c1ccccc1Br`, the figures for the inhibition in vivo at 30 mg/kg in the experiment on Mus musculus [1] and in the experiment on Mus musculus [2] were 79.8% and 96.2 to 100%, respectively.
As to `O=C(/C=C/C1=Cc2ccccc2OC1)c1ccc([N+](=O)[O-])cc1`, the results for the inhibition in vivo at 30 mg/kg in the experiment with Mus musculus [1] and with Mus musculus [2] were 50.8% and 85.1%, respectively.
For the compound `COc1ccc(C(=O)/C=C/C2=Cc3c(ccc4ccccc34)OC2)cc1`, the inhibition in vivo at 30 mg/kg was 79.3% in the experiment with Mus musculus [1] and 96.2 to 100% in the experiment on Mus musculus [2]. The Ratio IC50 in experiment [3] was 23.8. Further, the IC50 is 9.04 µM in experiment [4] and 0.38 µM in experiment [5].
As to `CN(C)c1ccc(C(=O)/C=C/C2=Cc3ccccc3OC2)cc1`, the inhibition in vivo at 30 mg/kg in the experiment on Mus musculus [1] is 57.3%; with Mus musculus [2] it was 66.7 to 100%.
`O=C(/C=C/C1=Cc2c(ccc3ccccc23)OC1)c1cccc(Br)c1`: the inhibition in vivo at 30 mg/kg is 67.9% in the experiment with Mus musculus [1] and 96.2 to 100% in the experiment on Mus musculus [2].
For `O=C(/C=C/C1=Cc2ccccc2OC1)c1cccc(Cl)c1` the same measures were 51% and 66.7 to 100%.
In the case of `COc1ccc(C(=O)/C=C/C2=Cc3ccccc3OC2)cc1OC`, the inhibition in vivo at 30 mg/kg was 67.6% in the experiment on Mus musculus [1] and 66.7 to 100% in the experiment on Mus musculus [2]. Besides, the Ratio IC50 in experiment [3] was 15.4. For the same compound, the values for the half-inhibitory concentration (IC50) in experiment [4] and in experiment [5] were 7.08 µM and 0.46 µM, respectively.
Take `O=C(/C=C/C1=Cc2ccccc2OC1)c1ccc(Cl)cc1`: the inhibition in vivo at 30 mg/kg with Mus musculus [1] is 56.1%; with Mus musculus [2] it was 66.7 to 100%.
For `O=C(/C=C/C1=Cc2ccccc2OC1)c1ccccc1Br` the same measures were 56.6% and 66.7 to 100%.
Turning to `O=C(/C=C/C1=Cc2c(ccc3ccccc23)OC1)c1ccc(Br)cc1`, the inhibition in vivo at 30 mg/kg in the experiment on Mus musculus [1] is 57.5%; with Mus musculus [2] it was 96.2 to 100%.
For `Nc1ccc(C(=O)/C=C/C2=Cc3ccccc3OC2)cc1` the same measures were 52.6% and 66.7 to 100%.
Turning to `COc1ccc(C(=O)/C=C/C2=Cc3ccccc3OC2)cc1`, the values for the inhibition in vivo at 30 mg/kg with Mus musculus [1] and in the experiment with Mus musculus [2] were 66.2% and 66.7 to 100%, respectively. Moreover, in experiment [3], the Ratio IC50 was 20. Also, the 50% inhibitory concentration (IC50) stood at 9.2 µM in experiment [4] and 0.46 µM in experiment [5].
For `O=C(/C=C/C1=Cc2c(ccc3ccccc23)OC1)c1ccccc1F` the same measures were 73.3%, 96.2 to 100%, 20.7, 6.41 µM and 0.31 µM.
As to `CCc1ccc(C(=O)/C=C/C2=Cc3c(ccc4ccccc34)OC2)cc1`, the results for the inhibition in vivo at 30 mg/kg with Mus musculus [1] and in the experiment on Mus musculus [2] were 83.1% and 96.2 to 100%, respectively. For the same compound, the Ratio IC50 in experiment [3] came to 20.7. The IC50 in experiment [4] came to 8.89 µM; in experiment [5] it was 0.43 µM.
For `CCc1ccc(C(=O)/C=C/C2=Cc3ccccc3OC2)cc1` the same measures were 68.1%, 66.7 to 100%, 15.9, 6.22 µM and 0.39 µM.
Turning to `Cc1ccc(C(=O)/C=C/C2=Cc3c(ccc4ccccc34)OC2)cc1`, the inhibition in vivo at 30 mg/kg was 74.6% with Mus musculus [1] and 96.2 to 100% in the experiment with Mus musculus [2].
For `O=C(/C=C/C1=Cc2ccccc2OC1)c1cccc(Br)c1` the same measures were 51.7% and 66.7 to 100%.
For `O=C(/C=C/C1=Cc2ccccc2OC1)c1cccc(F)c1` the same measures were 52.4% and 66.7 to 100%.
For `Cc1ccc(C(=O)/C=C/C2=Cc3c(ccc4ccccc34)OC2)cc1C` the same measures were 54.2% and 96.2 to 100%.
Regarding `O=C(/C=C/C1=Cc2ccccc2OC1)c1ccc(C(F)(F)F)cc1`, the inhibition in vivo at 30 mg/kg was found to be 75.5% in the experiment with Mus musculus [1] and 100% in the experiment with Mus musculus [2]. Besides, the Ratio IC50 in experiment [3] amounted to 9.34. Further, the IC50 in experiment [4] came out at 7.75 µM; in experiment [5] it was 0.83 µM.
With `O=C(/C=C/C1=Cc2c(ccc3ccccc23)OC1)c1ccc([N+](=O)[O-])cc1`, the values for the inhibition in vivo at 30 mg/kg with Mus musculus [1] and in the experiment with Mus musculus [2] were 76.3% and 100%, respectively. For the same compound, the Ratio IC50 in experiment [3] is 31.1. In addition, the IC50 stood at 7.77 µM in experiment [4] and 0.25 µM in experiment [5].
